One test deals with 22RV1 cells. As to the kind of experiment: Cell proliferation assay (CellTiter Glo), 22RV1. Type of test: cell-based. The note with it: Homo sapiens, 22Rv1, 72 h, read-out: 22RV1 IC50.
A further test addresses Human recombinant PARP2 (Homo sapiens, UniProt Q9UGN5). As to the kind of experiment: RBC HotSpot PARP2 radioisotope-based filter binding assay. The conditions noted are these: 2.5 nM enzyme, histone H3, 10 μM 32P-NAD+; read-out: PARP2 IC50. It counts as biochemical. The method in brief:
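Radiometric filter-binding assay: 2.5 nM recombinant enzyme with 20 μM histone (H4 for PARP1, H3 for PARP2) and activated DNA, pH 8.0, 1% DMSO. 20 min preincubation, then 10 μM ^32P-NAD^+ for 2 h at room temperature; filtered radioactivity gives IC50 fits.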

For 2 molecules, IC50 results are on record in patent US12398121B2 (Nuvation Bio Inc., priority 2018, dated 2025).

For orientation: IC50 means the concentration needed to halve the response being measured.

Where two headings read alike, the source gives them in different places.

Chain of Human recombinant PARP2 (Q9UGN5 whole entry): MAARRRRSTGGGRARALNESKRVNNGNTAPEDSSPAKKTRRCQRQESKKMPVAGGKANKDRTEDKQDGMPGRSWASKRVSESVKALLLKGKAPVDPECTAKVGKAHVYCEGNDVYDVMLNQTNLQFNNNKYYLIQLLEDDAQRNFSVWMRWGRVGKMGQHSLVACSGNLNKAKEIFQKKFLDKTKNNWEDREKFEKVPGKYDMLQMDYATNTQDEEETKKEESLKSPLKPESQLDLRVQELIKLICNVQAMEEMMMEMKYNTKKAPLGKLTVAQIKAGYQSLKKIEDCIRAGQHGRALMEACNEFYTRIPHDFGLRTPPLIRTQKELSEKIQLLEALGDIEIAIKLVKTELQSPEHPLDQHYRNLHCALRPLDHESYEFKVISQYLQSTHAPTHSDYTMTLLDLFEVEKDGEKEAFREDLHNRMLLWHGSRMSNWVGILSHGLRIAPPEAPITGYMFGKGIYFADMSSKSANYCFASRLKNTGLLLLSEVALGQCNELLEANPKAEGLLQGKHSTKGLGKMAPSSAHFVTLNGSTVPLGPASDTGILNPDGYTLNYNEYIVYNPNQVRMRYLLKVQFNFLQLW

Take `C[C@]12CCC(=O)C[C@@H]1CC[C@@H]1[C@@H]2CC[C@@]2(C)[C@H]1CC[C@@]2(O)CCCN1CCN(C(=O)c2cc(Cc3n[nH]c(=O)c4ccccc34)ccc2F)CC1` [Compound 1.119, 4-(4-fluoro-3-(4-(3-((5S,8R,9S,10S,13S,14S,17R)-17-hydroxy-10,13-dimethyl-3-oxohexadecahydro-1H-cyclopenta[a]phenanthren-17-yl)propyl)piperazine-1-carbonyl)benzyl)phthalazin-1(2H)-one]: the IC50 in the test on 22RV1 cells was found to be 2900 nM; on Human recombinant PARP2, 0.3 nM.
Consider `O=C(c1ccc(OCCN2CCN(C(=O)c3cc(Cc4n[nH]c(=O)c5ccccc45)ccc3F)CC2)cc1)c1c(-c2ccc(O)cc2)sc2cc(O)ccc12` [Compound 2.13, 4-(4-fluoro-3-(4-(2-(4-(6-hydroxy-2-(4-hydroxyphenyl)benzo[b]thiophene-3-carbonyl)phenoxy)ethyl)piperazine-1-carbonyl)benzyl)phthalazin-1(2H)-one], for which the 50% inhibitory concentration (IC50) came out at 1690 nM in the test with 22RV1 cells (cell growth inhibition, three days of treatment) and 0.5 nM at Human recombinant PARP2.
